Where two headings read alike, the source gives them in different places.
How the values were obtained:
[1] = test system: Pseudomonas aeruginosa (12 isolates from Cystic Fibrosis patients), planktonic bacteria; experiment: Planktonic susceptibility to antibiotics and antibiotic combinations (challenge plate), 24 h exposure; format: cell-based
[2] = test system: Biofilms of Pseudomonas aeruginosa (12 isolates from Cystic Fibrosis patients); experiment: Biofilm susceptibility to antibiotics and antibiotic combinations (peg lid device), 24 h exposure; format: cell-based; settings: count apparently resistant isolates of 12
[3] = test system: P. aeruginosa ATCC 27853 biofilms; experiment: Peg lid biofilm susceptibility testing, qualitative (MBEC) and quantitative (MBIC, MBCB) end points; format: cell-based, Pseudomonas aeruginosa
Description: Qualitative end points. According to CLSI standards % the MIC is defined as the lowest concentration of an antimicrobial agent that prevents visible growth in the challenge medium after a set period of incubation. By contrast, the MBEC is defined as the lowest concentration of antimicrobial agent that prevents visible growth from occurring in the recovery medium used to collect biofilm cells^17. The MBEC can be determined using the protocol presented here, and is measured after the recovery medium has been incubated for a suitable period of time, the length of which depends on the growth rate of the microorganism. Quantitative end points. […] This definition can be extended to both planktonic and biofilm cells and these end points will be denoted as the MBCP and MBCB, respectively. […] The technique presented here allows the MBCB or MLCB to be calculated. Another measure of biofilm susceptibility that has been proposed is the minimum biofilm inhibitory concentration (MBIC)^38,39. Here, the MBIC is defined as the lowest concentration of an antimicrobial at which there is no time-dependent increase in biofilm MVCC when an early exposure time is compared with a later exposure time. The MBIC thus corresponds to the intersecting point of two concentration-dependent killing curves, and therefore, it is possible to distinguish between biofilm resistance and tolerance on the basis of VCC (FIG. 8). (iii) Read the OD of the microtiter plate wells at 650 nm using the microtiter plate reader and visually inspect the wells for growth. […] (viii) Score the spot plates for growth by colony counting using the same approach described in Step 8. Determine the mean VCCs and SD for the broth culture using equations (2) and (3). Calculate biofilm mean log-killing and SD using equation (5). […] The biofilms were then exposed to gentamicin for either 2 or 20 hours; qualitative and quantitative determinations of biofilm cell survival were then performed. For ease of understanding, we focus on a single antibiotic.

[4] = 12 isolates from Cystic Fibrosis patients, 24 hours exposure, count apparently resistant isolates of 12

| Compound | Pseudomonas resistance to individual antibiotics and antibiotic combinations, Planktonic [1, 4] | Pseudomonas resistance to individual antibiotics and antibiotic combinations, Biofilm [2] | further results |
| --- | --- | --- | --- |
| C[C@@H](O)[C@H]1C(=O)N2C(C(=O)O)=C(SCCN=CN)C[C@H]12 [IMP] | 12 | 12 |  |
| O=C(O)c1cn(C2CC2)c2cc(N3CCNCC3)c(F)cc2c1=O [CIPRO, Ciprofloxacin] |  |  | Pseudomonas resistance to individual antibiotics and antibiotic combinations, Planktonic [1]: 4 |
| NC[C@H]1O[C@H](O[C@H]2[C@H](O)[C@@H](O[C@H]3O[C@H](CO)[C@@H](O)[C@H](N)[C@H]3O)[C@H](N)C[C@@H]2N)[C@H](N)C[C@@H]1O [TB, Tobramycin] | 3 | 12 |  |
| C[C@H]1[C@H](NC(=O)/C(=N\OC(C)(C)C(=O)O)c2csc(N)n2)C(=O)N1S(=O)(=O)O [AZTR, Aztreonam] |  |  | Pseudomonas resistance to individual antibiotics and antibiotic combinations, Planktonic [1]: 0 |
| NCC[C@H](O)C(=O)N[C@@H]1C[C@H](N)[C@@H](O[C@H]2O[C@H](CN)[C@@H](O)[C@H](O)[C@H]2O)[C@H](O)[C@H]1O[C@H]1O[C@H](CO)[C@@H](O)[C@H](N)[C@H]1O [AK, Amikacin] | 8 | 11 |  |
| gentamicin | 8 | 12 | MBCB ([3]; 2 h exposure): > 512 µg/mL; MBCB ([3]; 20 h exposure): 512 µg/mL; MBEC ([3]; exposed for 2 or 20 hours, biofilms grown in LB broth): > 512 µg/mL; MBIC ([3]; from VCC, 2 h compared with 20 h exposure): 128 µg/mL |
| CC(C)(O/N=C(\C(=O)N[C@@H]1C(=O)N2C(C(=O)[O-])=C(C[n+]3ccccc3)CS[C@H]12)c1csc(N)n1)C(=O)O [CFTZ, Ceftazidime] | 3 | 12 |  |

— patent US20120329675A1, “Testing of Biofilm for Anti-microbial Agent Susceptibility” (priority 2009, published 2012)
